From patent publication US7473669B2, “Substituted 4,5-dihydro-1,2,4-triazin-6-ones, 1,2,4-triazin-6-ones, and their use as fungicides” (priority 2005, dated 2009)

Legend:
Assay type in all cases: in vivo
Colletotricum lagenarium = assay: Cucumber Anthracnose greenhouse one-day protectant test; conditions: Cucumis sativus, 24 h, cucumber plants, one-day protectant test, 200 ppm application rate; read-out: COLLLA percent control rating
Erysiphe cichoracaerum = assay: Cucumber Powdery Mildew greenhouse one-day protectant test; conditions: 24 h, cucumber plants, one-day protectant test, 200 ppm application rate, read-out: ERYSCI percent control rating
[1] = test system: Puccinia recondita tritici; assay: Leaf Rust of Wheat greenhouse one-day protectant test; conditions: 24 h, wheat plants, one-day protectant test, 200 ppm application rate, read-out: PUCCRT percent control rating
Phytophthora infestans = assay: whole plant or invertebrate; conditions: in Solanum lycopersicum, 24 h, read-out: PHYTIN percent control rating, tomato plants, one-day protectant test, 200 ppm application rate
Pyricularia oryzae = assay: whole plant or invertebrate; conditions: 24 h, read-out: PYRIOR percent control rating
Leptosphaeria nodorum = assay: Glume Blotch of Wheat greenhouse one-day protectant test; conditions: Parastagonospora nodorum, 24 h; wheat plants, one-day protectant test, 200 ppm application rate; read-out: LEPTNO percent control rating

Row | SMILES | pest or weed control at 200 ppm (Colletotricum lagenarium) [%] | pest or weed control at 200 ppm (Erysiphe cichoracaerum) [%] | pest or weed control at 200 ppm [1] [%] | pest or weed control at 200 ppm (Phytophthora infestans) [%] | pest or weed control at 200 ppm (Pyricularia oryzae) [%] | pest or weed control at 200 ppm (Leptosphaeria nodorum) [%]
1 | O=C1CNC(c2ccc(Oc3cccnc3)cc2)=NN1CC(F)(F)F [Compound 59] | 0 to 49 | 0 to 49 | 80 to 100 | 50 to 79 | 50 to 79 | 50 to 79
2 | O=C1CNC(c2csc(-c3ccccc3)c2)=NN1CC(F)(F)F [Compound 60] | 0 to 49 | 0 to 49 | 0 to 49 | 0 to 49 | 80 to 100 | 80 to 100
3 | CCCCN1N=C(c2cc(-c3ccsc3)cc(-c3ccsc3)c2)NCC1=O [Compound 62] | 0 to 49 | 0 to 49 | 0 to 49 | 0 to 49 | 0 to 49 | 80 to 100
4 | Cc1cc(C)cc(C2=NN(Cc3c(F)c(F)c(F)c(F)c3F)C(=O)CN2)c1 [Compound 63] | 0 to 49 | 0 to 49 | 0 to 49 | 0 to 49 | 50 to 79 | 50 to 79
5 | Cc1cc(C)cc(C2=NN(CCOc3ccccc3)C(=O)CN2)c1 [Compound 64] | 50 to 79 | 0 to 49 | 80 to 100 | 0 to 49 | 80 to 100 | 80 to 100
6 | O=C1CNC(c2cc(Cl)cc(Cl)c2)=NN1Cc1c(F)c(F)c(F)c(F)c1F [Compound 65] | 80 to 100 | 0 to 49 | 0 to 49 | 0 to 49 | 50 to 79 | 80 to 100
7 | O=C1CNC(c2cc(Cl)cc(Cl)c2)=NN1CCOc1ccccc1 [Compound 66] | 80 to 100 | 0 to 49 | 80 to 100 | 0 to 49 | 80 to 100 | 80 to 100
8 | O=C1CNC(c2cc(Br)cc(-c3ccsc3)c2)=NN1Cc1ccccc1 [Compound 68] | 0 to 49 | 0 to 49 | 0 to 49 | 0 to 49 | 80 to 100 | 80 to 100
9 | O=C1CNC(c2cc(Br)cc(-c3ccsc3)c2)=NN1CCc1ccccc1 [Compound 69] | 0 to 49 | 0 to 49 | 0 to 49 | 0 to 49 | 50 to 79 | 50 to 79
10 | O=C1CNC(c2cccc(C#Cc3ccccc3)c2)=NN1CC(F)(F)F [Compound 70] | 0 to 49 | 0 to 49 | 0 to 49 | 0 to 49 | 80 to 100 | 0 to 49
11 | O=C1CNC(c2cccc(/C=C\c3ccccc3)c2)=NN1CC(F)(F)F [Compound 71] | 0 to 49 | 0 to 49 | 50 to 79 | 0 to 49 | 50 to 79 | 80 to 100
12 | O=C1CNC(c2cccc(/C=C3/CCc4ccccc43)c2)=NN1CC(F)(F)F [Compound 72] | 0 to 49 | 0 to 49 | 80 to 100 | 0 to 49 | 80 to 100 | 80 to 100
13 | O=C1CNC(c2cccc(C(=NOCc3ccccc3)c3ccccc3)c2)=NN1CC(F)(F)F [Compound 76] | 0 to 49 | 0 to 49 | 50 to 79 | 0 to 49 | 80 to 100 | 50 to 79
14 | O=c1cnc(-c2ccc(N3CCOCC3)cc2)nn1CC(F)(F)F [Compound 77] | 80 to 100 | 50 to 79 | 0 to 49 | 50 to 79 | 80 to 100 | 50 to 79
15 | O=c1cnc(-c2ccc(Oc3cccnc3)cc2)nn1CC(F)(F)F [Compound 78] | 80 to 100 | 0 to 49 | 80 to 100 | 80 to 100 | 80 to 100 | 50 to 79
16 | O=c1cnc(-c2csc(-c3ccccc3)c2)nn1CC(F)(F)F [Compound 79] | 50 to 79 | 0 to 49 | 80 to 100 | 0 to 49 | 80 to 100 | 80 to 100
17 | CCCCn1nc(-c2cc(-c3ccsc3)cc(-c3ccsc3)c2)ncc1=O [Compound 81] | 0 to 49 | 0 to 49 | 0 to 49 | 0 to 49 | 0 to 49 | 80 to 100
18 | O=c1cnc(-c2cc(Br)cc(-c3ccsc3)c2)nn1Cc1ccccc1 [Compound 82] | 0 to 49 | 0 to 49 | 0 to 49 | 0 to 49 | 50 to 79 | 80 to 100
19 | O=c1cnc(-c2cc(Br)cc(-c3ccsc3)c2)nn1CCc1ccccc1 [Compound 83] | 0 to 49 | 0 to 49 | 0 to 49 | 0 to 49 | 0 to 49 | 50 to 79
20 | Cc1cc(C)cc(-c2ncc(=O)n(Cc3c(F)c(F)c(F)c(F)c3F)n2)c1 [Compound 85] | 80 to 100 | 0 to 49 | 80 to 100 | 0 to 49 | 80 to 100 | 80 to 100
21 | Cc1cc(C)cc(-c2ncc(=O)n(CCOc3ccccc3)n2)c1 [Compound 86] | 80 to 100 | 0 to 49 | 80 to 100 | 0 to 49 | 80 to 100 | 80 to 100
22 | O=c1cnc(-c2cc(Cl)cc(Cl)c2)nn1CCOc1ccccc1 [Compound 87] | 0 to 49 | 0 to 49 | 0 to 49 | 0 to 49 | 0 to 49 | 0 to 49
23 | O=c1cnc(-c2ccc(-c3ccc(Cl)s3)nc2)nn1CC(F)(F)F [Compound 88] | 0 to 49 | 0 to 49 | 0 to 49 | 0 to 49 | 0 to 49 | 50 to 79
